Here are results for eight compounds from PubChem BioAssay (NCI).

Each structure is given as a SMILES string.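 Each compound was tested at five concentrations against cells in 96-well plates for 48 hours. GI50 is the concentration that inhibits growth by half. TGI: total growth inhibition.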 Bounds are passed on as bounds.

Test systems include A549 NSCLC; BT-549 breast; COLO 205 colon; MDA-MB-231 breast; MDA-MB-435; NCI-H226 lung; NCI-H460 lung; OVCAR-5 ovarian; SF-268 CNS; SNB-19 CNS.
Common to all, as to assay: NCI anticancer screen, dose series, 48 h

Take `CC[n+]1ccc2c(c1)C(=O)c1nccc3c1c-2nc1ccccc13`: the GI50 in the test on A549 NSCLC was 0.958 µM; with BT-549 breast it was 0.832 µM; in the test on COLO 205 colon, 1.13 µM; in the test with MDA-MB-231 breast, 2.17 µM; with MDA-MB-435 it was 2.34 µM; in the test on NCI-H226 lung, 1.13 µM. For the same compound, the GI50 in the test on NCI-H460 lung was 0.12 µM; in the test on OVCAR-5 ovarian it was 6.88 µM; with SF-268 CNS, 0.34 µM; in the test on SNB-19 CNS it was 0.212 µM. In addition, the TGI with A549 NSCLC was 13.5 µM; in the test with BT-549 breast, 3.12 µM; in the test on COLO 205 colon it was 5.22 µM; in the test with MDA-MB-231 breast it was 14 µM; in the test on MDA-MB-435, 7.24 µM; in the test on NCI-H226 lung, 5.51 µM. Also, the TGI in the test with NCI-H460 lung came out at 2.65 µM; in the test on OVCAR-5 ovarian, 19.4 µM; with SF-268 CNS, 3.63 µM; in the test with SNB-19 CNS, 0.856 µM.
On to `COc1ccc(CNC(=O)COc2ccc(/C=N/Nc3nc4ccccc4s3)cc2)cc1`, for which the GI50 with A549 NSCLC was 3.12 µM; with BT-549 breast, 1.61 µM; with MDA-MB-231 breast it was 1.86 µM; in the test on MDA-MB-435, 3.47 µM; with NCI-H460 lung, 2.65 µM; in the test on OVCAR-5 ovarian, 4.57 µM. The GI50 with SF-268 CNS was 3.04 µM; in the test with SNB-19 CNS, 2.69 µM. For the same compound, the TGI in the test with A549 NSCLC is 87.6 µM; in the test with BT-549 breast it was 3.41 µM; in the test on MDA-MB-231 breast, 4.45 µM; in the test with MDA-MB-435, more than 100 µM; in the test on NCI-H460 lung, 7.3 µM; in the test with OVCAR-5 ovarian, more than 100 µM. Also, the TGI in the test on SF-268 CNS was 12.2 µM; in the test on SNB-19 CNS, 12.6 µM.
For the compound `NNC(=O)c1cnn(-c2ccnc3c(C(F)(F)F)cccc23)c1N`, the GI50 in the test with A549 NSCLC, with BT-549 breast, in the test with COLO 205 colon, in the test on MDA-MB-231 breast, in the test with MDA-MB-435 and with NCI-H226 lung was more than 100 µM throughout. The GI50 in the test with NCI-H460 lung, with OVCAR-5 ovarian, in the test with SF-268 CNS and with SNB-19 CNS was more than 100 µM in each case. In addition, the TGI in the test with A549 NSCLC, in the test with BT-549 breast, in the test with COLO 205 colon, in the test on MDA-MB-231 breast, in the test with MDA-MB-435 and with NCI-H226 lung was more than 100 µM each time. Also, the TGI with NCI-H460 lung, with OVCAR-5 ovarian, in the test on SF-268 CNS and in the test on SNB-19 CNS was more than 100 µM each time.
`CC1(C)N=C(N)N=C(N)N1c1ccc(CCCCc2ccc(S(=O)(=O)F)cc2Cl)c(Cl)c1`: the TGI with A549 NSCLC was 200 µM; with BT-549 breast, 14.5 µM; in the test on COLO 205 colon, 78 µM; in the test with MDA-MB-231 breast, 82.3 µM; with MDA-MB-435, more than 500 µM; in the test with NCI-H226 lung it was 158 µM. In addition, the TGI stood at 80.8 µM in the test on NCI-H460 lung, 198 µM with OVCAR-5 ovarian, 29.3 µM with SF-268 CNS and 125 µM in the test on SNB-19 CNS.
With `COc1cccc(-c2nn(-c3ccccc3)cc2-c2ccnc(NCCCNS(=O)(=O)c3cccc(F)c3)c2)c1`, the GI50 in the test on A549 NSCLC is 6.34 µM; with BT-549 breast, 2.76 µM; in the test with COLO 205 colon, 2.41 µM; in the test with MDA-MB-231 breast, 3.43 µM; in the test with MDA-MB-435, 3.68 µM; in the test on NCI-H226 lung it was 6.75 µM. The GI50 in the test on NCI-H460 lung is 4.93 µM; with OVCAR-5 ovarian, more than 100 µM; in the test on SF-268 CNS, 5.63 µM. Further, the TGI in the test with A549 NSCLC was more than 100 µM; in the test on BT-549 breast, more than 100 µM; in the test with COLO 205 colon, 9.39 µM; in the test with MDA-MB-231 breast, more than 100 µM; in the test with MDA-MB-435 it was 58.8 µM; in the test with NCI-H226 lung, more than 100 µM. Moreover, the TGI with NCI-H460 lung, in the test on OVCAR-5 ovarian and in the test on SF-268 CNS was more than 100 µM throughout.
Turning to `COc1ccccc1NC(=O)c1ccc(/C=C/C(=O)c2nccn2C)cc1`, the GI50 with A549 NSCLC was 0.74 µM; in the test on BT-549 breast it was 0.509 µM; in the test with COLO 205 colon, 0.552 µM; in the test on MDA-MB-231 breast, 0.835 µM; in the test on MDA-MB-435 it was 0.548 µM; in the test on NCI-H226 lung, 0.588 µM. Also, the GI50 with NCI-H460 lung is 0.572 µM; with OVCAR-5 ovarian, 0.619 µM; in the test with SF-268 CNS, 0.631 µM; in the test on SNB-19 CNS, 0.553 µM. Moreover, the TGI is 8.75 µM in the test on A549 NSCLC; 1.19 µM in the test on BT-549 breast; 1.29 µM in the test with COLO 205 colon; 9.25 µM with MDA-MB-231 breast; 1.3 µM in the test with MDA-MB-435; 1.69 µM in the test on NCI-H226 lung. Further, the TGI amounted to 1.52 µM with NCI-H460 lung, 1.73 µM in the test with OVCAR-5 ovarian, 1.97 µM in the test on SF-268 CNS and 1.59 µM with SNB-19 CNS.
For `CC1=C(CCCOC(=O)NCCCl)C2=C(C)C3(CC3)[C@@](C)(O)C(=O)C2=C1`, the GI50 in the test on A549 NSCLC is 3.42 µM; in the test on BT-549 breast it was 2.08 µM; in the test on COLO 205 colon it was 2.06 µM; in the test with MDA-MB-231 breast, 2.56 µM; in the test on MDA-MB-435, 5.07 µM; in the test with NCI-H226 lung, 2.4 µM. Besides, the GI50 is 2.42 µM in the test on NCI-H460 lung, 3.13 µM in the test with OVCAR-5 ovarian, 3.07 µM with SF-268 CNS and 3.83 µM in the test with SNB-19 CNS. Moreover, the TGI was more than 100 µM in the test with A549 NSCLC; 6.66 µM with BT-549 breast; 6.65 µM in the test on COLO 205 colon; 8.35 µM in the test with MDA-MB-231 breast; 99.4 µM in the test on MDA-MB-435; 6.33 µM with NCI-H226 lung. For the same compound, the TGI was 13.6 µM in the test on NCI-H460 lung, more than 100 µM in the test with OVCAR-5 ovarian, 51.7 µM in the test with SF-268 CNS and more than 100 µM in the test with SNB-19 CNS.
`CCCCCCCCCCCCOC1C(CNCC2OC3OC(C)(C)OC3C2NC(=O)Nc2ccc(C(=O)OCC)cc2)OC2OC(C)(C)OC21` (centres undefined): the GI50 in the test with A549 NSCLC was 2.23 µM; with BT-549 breast, 5.44 µM; in the test with COLO 205 colon, 1.99 µM; with MDA-MB-231 breast it was 1.77 µM; with MDA-MB-435 it was 1.9 µM; in the test with NCI-H226 lung, 6.23 µM. Also, the GI50 with NCI-H460 lung is 2 µM; in the test with OVCAR-5 ovarian, 4.18 µM; in the test with SF-268 CNS it was 1.63 µM; with SNB-19 CNS, 13.7 µM. Also, the TGI amounted to 4.76 µM in the test on A549 NSCLC; 19.8 µM in the test on BT-549 breast; 3.76 µM with COLO 205 colon; 3.33 µM in the test on MDA-MB-231 breast; 3.8 µM in the test with MDA-MB-435; 22.7 µM in the test with NCI-H226 lung. Besides, the TGI in the test on NCI-H460 lung is 3.87 µM; in the test on OVCAR-5 ovarian, 17 µM; in the test with SF-268 CNS, 3.24 µM; in the test with SNB-19 CNS it was 27.7 µM.
